The values below come from patent US8410284B2, “Cyclic benzimidazole derivatives useful as anti-diabetic agents” (Merck Sharp & Dohme Corp, priority 2008, dated 2013).

pEC50: −log10 of the molar value.

In this experiment the target is recombinant human AMPK complex 1 (containing α1β1γ1) (Homo sapiens, UniProt Q13131+Q9Y478). The experiment in a line: In vitro AMPK activation assay (AMPKSAMSF). The experiment is classed as biochemical. As to conditions: recombinant human AMPK complex 1 (α1β1γ1); for Emax: read-out: maximum AMP activation; for % Maximum AMP Activation of human AMPK Complex 1: basal activity subtracted. The procedure: AMPKSAMSF (In Vitro AMPK Activation Assay)
Sequence of recombinant human AMPK complex 1 (containing α1β1γ1) (Q13131 whole entry): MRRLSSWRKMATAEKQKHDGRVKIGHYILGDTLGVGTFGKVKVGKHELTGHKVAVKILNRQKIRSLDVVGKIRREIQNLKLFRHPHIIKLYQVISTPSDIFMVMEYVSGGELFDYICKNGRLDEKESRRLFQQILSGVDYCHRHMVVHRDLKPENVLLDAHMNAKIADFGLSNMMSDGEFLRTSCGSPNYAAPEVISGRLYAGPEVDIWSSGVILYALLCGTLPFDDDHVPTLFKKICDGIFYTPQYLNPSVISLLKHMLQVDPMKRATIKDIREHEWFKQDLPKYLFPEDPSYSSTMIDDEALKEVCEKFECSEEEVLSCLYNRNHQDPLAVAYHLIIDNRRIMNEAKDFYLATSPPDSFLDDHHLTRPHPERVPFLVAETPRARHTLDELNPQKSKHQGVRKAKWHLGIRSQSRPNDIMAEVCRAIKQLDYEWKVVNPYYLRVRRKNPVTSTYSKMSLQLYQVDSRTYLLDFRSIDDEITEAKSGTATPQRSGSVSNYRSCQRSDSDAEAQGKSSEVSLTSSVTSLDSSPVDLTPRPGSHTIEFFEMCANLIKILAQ
Sequence of recombinant human AMPK complex 1 (containing α1β1γ1) (Q9Y478 whole entry): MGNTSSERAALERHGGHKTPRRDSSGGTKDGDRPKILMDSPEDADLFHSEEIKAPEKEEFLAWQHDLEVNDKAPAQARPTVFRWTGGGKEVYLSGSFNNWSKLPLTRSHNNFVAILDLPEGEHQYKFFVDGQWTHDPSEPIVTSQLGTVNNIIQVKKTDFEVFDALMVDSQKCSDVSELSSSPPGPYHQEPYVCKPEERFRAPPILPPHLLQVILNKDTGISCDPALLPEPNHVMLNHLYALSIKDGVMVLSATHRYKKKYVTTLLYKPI
Sequence of recombinant human AMPK complex 1 (containing α1β1γ1) (P54619 whole entry partner): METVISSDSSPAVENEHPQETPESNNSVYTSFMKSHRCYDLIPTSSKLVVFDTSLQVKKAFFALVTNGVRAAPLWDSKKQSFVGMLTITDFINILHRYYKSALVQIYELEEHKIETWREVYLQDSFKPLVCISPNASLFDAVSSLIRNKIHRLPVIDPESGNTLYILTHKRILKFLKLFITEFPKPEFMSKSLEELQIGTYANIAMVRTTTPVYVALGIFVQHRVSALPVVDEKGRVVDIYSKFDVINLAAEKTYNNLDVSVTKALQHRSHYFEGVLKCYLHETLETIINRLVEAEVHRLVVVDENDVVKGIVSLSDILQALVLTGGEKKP
The recombinant human AMPK complex 1 (containing α1β1γ1) was obtained from baculovirus expression system. Recombinant viruses were generated by cotransfection of AMPK/pBacPak9 clones with Baculogold baculovirus DNA (Pharmingen) in spodoptera frugiperda 21 cells according to the manufacturer's instructions. Each round of virus amplification was performed for 5 days in Grace's medium containing 10% serum. Virus that had been subjected to three rounds of amplification was used for all protein production procedures. To express the AMPK complex, sf21 cells were adapted to serum free medium (SF900 II, Invitrogen) by sequential dilution from serum containing stocks into SF900 II medium and maintained in shaker flasks at 90 rpm at 27° C. The recombinant AMPK enzyme complex was produced by triple infection, one recombinant virus for each of the subunits, in sf21 cells under serum free conditions. Cells were infected in log phase, 1×10^6 cells/ml, at a multiplicity of infection of ˜5. Cells were harvested by centrifugation at 10,000×g for 15 minutes after 72 hours of infection with viruses. The insect cell pellet from 2 liters of culture was resuspended in 50 ml lysis buffer (20 mM Tris-HCl, 50 mM NaCl, 50 mM NaF, 30 mM Na PPi, 0.25 M sucrose, 10 mM ZnCl2, 2 mM DTT, 0.4 mg/ml digitonin) and subjected to two cycles of freeze-thaw lysis in a dry-ice ethanol bath. Insoluble material was removed by centrifugation at 10,000×g and the supernatant was fractionated with use of polyethylene glycol (PEG). The protein fraction precipitating between 2.5 and 6% PEG was used for further purification using a Blue-Sepharose step (Zhou et al, J. Clin. Invest. 108, 1167-1174, 2001).
The total in vitro AMPK activation assay volume is 50 μl in a 96-well plate. The reaction mixture contained 100 μM ATP (0.5 μCi ^33P-ATP per reaction), and 50 μM SAMS (HMRSAMSGLHLVKRR) in a buffer (20 mM HEPES, pH 7.0, 5 mM MgCl2, 0.01% Brij35). The reaction was initiated with addition of the enzyme. After 30-minute incubation at 30° C., the reaction was stopped by addition of 80 μl 1% H3PO4. Aliquots (100 μl) were transferred to 96-well MultiScreen plates (MAPHNOB50; Millipore Corp., Bedford, Mass., USA). The plate was washed three times with 1% H3PO4 followed by detection in a Top-count. The counts per minute from the basal activity (the reaction without activator) was subtracted from each well and the data were expressed as % maximum AMP activation followed by EC50 calculation.

On to `Cc1ccc(Oc2nc3cc(-c4ccc(-c5ccccc5)cc4)c(Cl)cc3[nH]2)cc1[P@@]1(=O)OCC[C@@H](c2ccncc2)O1` (relative stereo) [Example 22, Cis-5-Biphenyl-4-yl-6-chloro-2-[4-methyl-3-(2-oxo-4-pyridin-4-yl-2lambda*5*-[1,3,2]dioxophosphinan-2-yl)-phenoxy]-1H-benzoimidazole], for which the Emax was > 80%.

As for `O=P(O)(O)c1cccc(Oc2nc3cc(-c4ccc(N5CCOCC5)cc4)c(Cl)cc3[nH]2)c1` [Example 7, {3-[6-Chloro-5-(4-morpholin-4-yl-phenyl)-1H-benzoimidazol-2-yloxy]phenyl}phosphonic acid], the Emax was > 80%.

`Cc1ccc(Oc2nc3cc(-c4ccc(N5CCCC5)cc4)c(Cl)cc3[nH]2)cc1P(=O)(O)O` [Example 6, {5-[6-Chloro-5-(4-pyrrolidin-1-yl-phenyl)-1H-benzoimidazol-2-yloxy]-2-methyl-phenyl}phosphonic acid]: the pEC50 is 8.96, the “% Maximum AMP Activation of human AMPK Complex 1” value (from here on “% Maximum AMP Activation”) is 223% and the Emax is > 80%.

For `CCOC(=O)CNP(=O)(NCC(=O)OCC)c1cc(Oc2nc3cc(-c4ccc5c(ccn5C)c4)c(Cl)cc3[nH]2)ccc1C` [Example 27, {[6-Chloro-5-(1-methyl-1H-indol-5-yl)-1-H-benzimidazol-2-yl]oxo}-4-methylphen-3-ylphosphono-bis-2-amino-ethanoic acid ethyl ester], the Emax was > 80%.

On to `Cc1ccc(Oc2nc3cc(C#Cc4ccccc4)c(Cl)cc3[nH]2)cc1P(=O)(O)O` [Example 3, ((6-Chloro-5-phenylethynyl-1H-benzimidazol-2-yl)oxo)-4-methylphen-3-ylphosphonic acid], for which the pEC50 is 9.15, the “% Maximum AMP Activation” value is 192% and the Emax is > 80%.

Take `Cc1ccc(Oc2nc3cc(-c4ccc(-c5ccccc5)cc4)c(Cl)cc3[nH]2)cc1[P@@]1(=O)OCC[C@H](c2ccncc2)O1` (relative stereo) [Example 21, Trans-5-Biphenyl-4-yl-6-chloro-2-[4-methyl-3-(2-oxo-4-pyridin-4-yl-2lambda*5*-[1,3,2]dioxophosphinan-2-yl)-phenoxy]-1H-benzoimidazole]: the Emax was > 80%.

On to `Cc1ccc(Oc2nc3cc(-c4ccc(-c5ccccc5)cc4)c(Cl)cc3[nH]2)cc1P(=O)(O)O` [Example 1, ((5-(4-Biphenyl)-6-chloro-1H-benzimidazol-2-yl)oxo)-4-methylphen-3-ylphosphonic acid], for which the pEC50 is 9.05, the “% Maximum AMP Activation” value came to 175% and the Emax was > 80%.

Take `Cc1ccc(Oc2nc3cc(-c4ccc(N5CCOCC5)cc4)c(Cl)cc3[nH]2)cc1P(=O)(O)O` [Example 8, 5-(5-chloro-6-(4-morpholinophenyl)-1H-benzo[d]imidazol-2-yloxy)-2-methylphenylphosphonic acid]: the pEC50 was 8.92 and the “% Maximum AMP Activation” value stood at 224%.

As for `COc1ccc(C#Cc2cc3nc(Oc4ccc(C)c(P(=O)(O)O)c4)[nH]c3cc2Cl)cc1` [Example 10, 5-(5-chloro-6-(2-(4-methoxyphenyl)ethynyl)-1H-benzo[d]imidazol-2-yloxy)-2-methylphenylphosphonic acid], the Emax is > 80%.

Consider `Cc1ccc(Oc2nc3cc(-c4ccc(N5CCOCC5)cc4)c(Cl)cc3[nH]2)cc1P(=O)(O)O` [Example 4, {5-[6-Chloro-5-(4-morpholin-4-yl-phenyl)-1H-benzoimidazol-2-yloxy]-2-methylphenyl}-phosphonic acid], for which the Emax is > 80%.

On to `O=P1(c2cccc(Oc3nc4cc(-c5ccc(-c6ccccc6)cc5)c(Cl)cc4[nH]3)c2)OCCC(c2cccc(Cl)c2)O1` (stereo not drawn) [Example 24, Cis-5-Biphenyl-4-yl-6-chloro-2-[3-4-(3-chloro-phenyl)-2-oxo-2-lambda*5*-[1,3,2]dioxaphosphinan-2-ylphenoxy]-1H-benzoimidazole], for which the Emax was > 80%.

As for `O=C(c1cccc(P(=O)(O)O)c1)c1nc2cc(-c3ccc(-c4ccccc4)cc3)c(Cl)cc2[nH]1` [Example 14, {3-[(5-biphenyl-4-yl-6-chloro-1H-benzimidazol-2-yl)carbonyl]phenyl}phosphonic acid], the Emax is > 80%.

In the case of `O=[P@@]1(c2cccc(Oc3nc4cc(-c5ccc(-c6ccccc6)cc5)c(Cl)cc4[nH]3)c2)OCC[C@@H](c2cccc(Cl)c2)O1` (relative stereo) [Example 23, Trans-5-Biphenyl-4-yl-6-chloro-2-[3-4-(3-chloro-phenyl)-2-oxo-2-lambda*5*-[1,3,2]dioxaphosphinan-2-ylphenoxy]-1H-benzoimidazole], the Emax was > 80%.

Consider `O=P(O)(O)c1cccc(Oc2nc3cc(-c4ccc(-c5ccccc5)cc4)c(F)cc3[nH]2)c1` [Example 13, {3-[(5-biphenyl-4-yl-6-fluoro-1H-benzimidazol-2-yl)oxy]phenyl}phosphonic acid], for which the Emax was > 80%.

As to `Cc1ccc(Oc2nc3cc(-c4ccc5c(ccn5C)c4)c(Cl)cc3[nH]2)cc1P(=O)(O)O` [Example 9, 5-(5-chloro-6-(1-methyl-1H-indol-5-yl)-1H-benzo[d]imidazol-2-yloxy)-2-methylphenylphosphonic acid], the Emax was > 80%.

As to `Cc1ccc(Oc2nc3cc(-c4ccc(-c5ccccc5)cc4)c(Cl)cc3[nH]2)cc1[P@@]1(=O)OCC[C@H](c2cccc(Cl)c2)O1` (relative stereo) [Example 19, Trans-5-Biphenyl-4-yl-6-chloro-2-[3-[4-(3-chloro-phenyl)-2-oxo-2-lambda*5*-[1,3,2]dioxaphosphinan-2-yl]-4-methyl-phenoxy]-1H-benzoimidazole], the Emax was > 80%.

Consider `CCOP(C)(=O)c1cccc(Oc2nc3cc(-c4ccc(-c5ccccc5)cc4)c(Cl)cc3[nH]2)c1` (centres unmarked) [Example 17, [3-(5 Biphenyl-4-yl-6-chloro-1H-benzoimidazol-2-yloxy)-phenyl]-methyl-phosphinic acid ethyl ester], for which the Emax is > 80%.

Turning to `CP(=O)(O)c1cccc(Oc2nc3cc(-c4ccc(-c5ccccc5)cc4)c(Cl)cc3[nH]2)c1` [Example 18, [3-(5-Biphenyl-4-yl-6-chloro-1H-benzoimidazol-2-yloxy)-phenyl]-methyl-phosphinic acid], the Emax was > 80%.

For `O=P(O)(O)c1cncc(Oc2nc3cc(-c4ccc(-c5ccccc5)cc4)c(Cl)cc3[nH]2)c1` [Example 12, [5-(5-Biphenyl-4-yl-6-chloro-1H-benzoimidazol-2-yloxy)-pyridin-3-yl]-phoshponic acid], the Emax is > 80%.

For `O=P1(c2cccc(Oc3nc4cc(-c5ccc(-c6ccccc6)cc5)c(Cl)cc4[nH]3)c2)OCCC(c2ccncc2)O1` [Example 26, Cis-5-Biphenyl-4-yl-6-chloro-2-[3-((S)-2-oxo-4-pyridin-4-yl-2lambda*5*-[1,3,2]dioxophosphinan-2-yl)-phenoxy]-1H-benzoimidazole], the Emax was > 80%.

Regarding `Cc1ccc(Oc2nc3cc(-c4ccc(-c5ccccc5)cc4)c(Cl)cc3[nH]2)cc1[P@@]1(=O)OCC[C@@H](c2cccc(Cl)c2)O1` (relative stereo) [Example 20, Cis-5-Biphenyl-4-yl-6-chloro-2-[3-[4-(3-chloro-phenyl)-2-oxo-2-lambda*5*-[1,3,2]dioxaphosphinan-2-yl]4-methyl-phenoxy]-1H-benzoimidazole], the Emax is > 80%.

Regarding `O=[P@@]1(c2cccc(Oc3nc4cc(-c5ccc(-c6ccccc6)cc5)c(Cl)cc4[nH]3)c2)OCC[C@@H](c2ccncc2)O1` [Example 25, Trans-5-Biphenyl-4-yl-6-chloro-2-trans-[3-((S)-2-oxo-4-pyridin-4-yl-2lambda*5*-[1,3,2]dioxophosphinan-2-yl)-phenoxy]-1H-benzoimidazole], the Emax is > 80%.

`Cc1ccc(Oc2nc3cc(-c4ccc(C5CCCCC5)cc4)c(Cl)cc3[nH]2)cc1P(=O)(O)O` [Example 5, {5-[6-Chloro-5-(4-cyclohexyl-phenyl)-1H-benzoimidazol-2-yloxy]-2-methylphenyl}phosphonic acid]: the pEC50 was 8.31, the “% Maximum AMP Activation” value worked out at 257% and the Emax is > 80%.

What is called pEC50 is the EC50 on a negative log10 scale, so that one unit is a factor of ten.
